Read-outs that look alike come from different tables or passages of the source.
How the values were obtained:
skin blanching = settings: in vivo; cited from earlier work
[1] = cited from earlier work
[2] = system: intact skin of healthy volunteers; assay: Irritation patch test study under semi-occlusive conditions; settings: continuous exposure under semi occlusion, 21 patch applications over 21 days
From the text: This was a randomized, double-blind, single-center, vehicle-controlled, within-subject comparison patch test study of followings for irritation potential when repeatedly applied to the skin under semi-occlusive conditions in healthy volunteers: • i. […] Vehicle spray (without active agent of Composition 6), • iii.
All subjects received applications of each study product to intact skin at randomly assigned, adjacent sites on the back. Evaluators and subjects were blinded and unaware of the identity of the study product at the patch test sites. The study products were applied under semi-occlusive patch conditions using a 2 cm×2 cm patch. The products were applied to either side of the infrascapular area of the back. Evaluation of dermal reactions at the application sites were assessed clinically using a visual scale that rates the degree of erythema, edema, and other signs of cutaneous irritation.
A total of 21 patch applications were made over a period of 21 days. Irritancy score of each composition was recorded.

Compound: CCC(=O)OCC(=O)[C@@]1(OC(=O)CC)[C@@H](C)C[C@H]2[C@@H]3CCC4=CC(=O)C=C[C@]4(C)[C@@]3(F)[C@@H](O)C[C@@]21C [Betamethasone dipropionate, 9-fluoro-11(β),17,21-trihydroxy-16(β)-methylpregna-1,4-diene-3,20-dione 17,21-dipropionate]
- VCA potency class (skin blanching): super potent (Class 1) and/or high potent (Class 2)
- Solubility ([1]; in acetone): freely soluble
- Solubility ([1]; in chloroform): freely soluble
- Solubility ([1]; in ethanol): sparingly soluble
- Solubility ([1]; in water): practically insoluble

Compound: CCCCCCCCCCCCOS(=O)(=O)[O-].[Na+] [0.2% SLS, Sodium lauryl sulfate]
- Irritation [2]: Significantly more irritation

From US20200230155A1, “TOPICAL CORTICOSTEROID COMPOSITIONS” (Encore Dermatology, Inc., priority 2014, published 2020)
